According to BindingDB's records for doi:10.7270/Q2ZC817P (The Scripps Research Institute Molecular Screening Center, 2007):
Counter-ions that a name gives are not always drawn.

Each compound was assayed against Sphingosine 1-phosphate receptor 1 (Homo sapiens, UniProt P21453) (assay: S1P1 agonism potentiation – cell-based, potentiator mode, 60K MLSMR set, dose response (AID 466)). Settings: not given.
Sequence of Sphingosine 1-phosphate receptor 1 (P21453 whole entry): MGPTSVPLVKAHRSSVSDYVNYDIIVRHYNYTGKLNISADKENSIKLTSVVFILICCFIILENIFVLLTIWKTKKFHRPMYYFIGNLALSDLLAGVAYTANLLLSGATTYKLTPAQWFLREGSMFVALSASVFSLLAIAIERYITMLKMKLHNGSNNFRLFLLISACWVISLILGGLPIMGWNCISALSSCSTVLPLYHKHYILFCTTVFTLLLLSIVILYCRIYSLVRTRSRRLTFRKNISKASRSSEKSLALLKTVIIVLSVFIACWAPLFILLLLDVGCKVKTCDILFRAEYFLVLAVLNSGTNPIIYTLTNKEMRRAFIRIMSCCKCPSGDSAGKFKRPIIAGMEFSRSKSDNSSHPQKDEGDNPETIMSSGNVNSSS

| Compound | EC50 [µM] |
| --- | --- |
| Cc1ccc(-c2nc(CSCC(=O)N3CCN(c4ccccn4)CC3)c(C)o2)cc1 [2-[[5-methyl-2-(4-methylphenyl)-1,3-oxazol-4-yl]methylsulfanyl]-1-(4-pyridin-2-ylpiperazin-1-yl)ethanone] | 5.99 |
| CCc1cc2c(N3CCN(c4ccccc4)CC3)ncnc2s1 [6-ethyl-4-(4-phenyl-1-piperazinyl)thieno[2,3-d]pyrimidine] | 8.06 |
| O=S1(=O)C=C(Sc2nc3ccccc3s2)c2ccccc21 [2-[(1,1-dioxido-1-benzothien-3-yl)thio]-1,3-benzothiazole] | > 10 |
| Cc1csc(SCC(=O)c2cc(C)n(Cc3cccs3)c2C)n1 [1-[2,5-dimethyl-1-(2-thenyl)pyrrol-3-yl]-2-[(4-methylthiazol-2-yl)thio]ethanone] | 7.01 |
| CN(C)CC(C(=O)c1ccccc1)c1ccccc1 (configuration not stated) [3-(dimethylamino)-1,2-diphenyl-1-propanone;hydrochloride] | 12 |
| O=C(Nc1ccccc1C(F)(F)F)c1cc(-c2ccc(O)cc2)on1 [5-(4-hydroxyphenyl)-N-[2-(trifluoromethyl)phenyl]isoxazole-3-carboxamide] | 0.778 |
| Cn1c(-c2c(N)n(C3CCCC3)c3nc4ccccc4nc23)nc2ccccc21 [1-cyclopentyl-3-(1-methyl-2-benzimidazolyl)-2-pyrrolo[3,2-b]quinoxalinamine] | 1.56 |
| c1ccc(-c2ccc(-c3nc(-c4ccncc4)no3)cc2)cc1 [5-(4-phenylphenyl)-3-(4-pyridyl)-1,2,4-oxadiazole] | 8.31 |
| Fc1ccc2[nH]c3c(N4CCSCC4)ncnc3c2c1 [MLS000078401] | 6.28 |
| COc1ccccc1-c1cc(C(=O)Nc2ccccc2SC)no1 [5-(2-methoxyphenyl)-N-(2-methylsulfanylphenyl)-1,2-oxazole-3-carboxamide] | 5.75 |
| COc1ccc(NC(=O)c2cnn3c(C(F)(F)F)cc(-c4ccco4)nc23)cc1OC [MLS000109325] | > 95 |
| CCOc1ccc(S(=O)(=O)N2CCN(c3ccc(C)cc3C)CC2)cc1 [1-(2,4-dimethylphenyl)-4-(4-ethoxyphenyl)sulfonyl-piperazine] | > 95 |
| Cc1sc2ncnc(Sc3nnnn3-c3ccccc3)c2c1C [5,6-dimethyl-4-(1-phenyltetrazol-5-yl)sulfanylthieno[2,3-d]pyrimidine] | > 95 |
| CCOc1ccc(C(=O)Nc2c(C(N)=O)oc3ccccc23)cc1 [3-[(4-ethoxybenzoyl)amino]-1-benzofuran-2-carboxamide] | 3.67 |
| O=C(Nc1ccc(S(=O)(=O)NCc2ccco2)cc1)c1ccc2ccccc2n1 [MLS000098663] | 6.51 |
| Cc1nn(Cc2ccc(Cl)c(Cl)c2)c(C)c1NC(=O)c1cc(CC(C)C)on1 [MLS000116412] | 9.37 |
| Cc1nnc2ccc(Oc3ccc(-c4ccccc4)cc3)nn12 [3-methyl-6-(4-phenylphenoxy)-[1,2,4]triazolo[4,3-b]pyridazine] | 5.31 |
| CCn1c(NC(=O)c2cccc(Cn3cc(Cl)cn3)c2)nc2ccccc21 [3-[(4-chloranylpyrazol-1-yl)methyl]-N-(1-ethylbenzimidazol-2-yl)benzamide] | > 10 |
| Cc1ccc(C(C)C)c(OCc2nc(-c3nonc3N)no2)c1 [4-[5-[(5-methyl-2-propan-2-yl-phenoxy)methyl]-1,2,4-oxadiazol-3-yl]-1,2,5-oxadiazol-3-amine] | 1.12 |
| N#Cc1nc(-c2ccc(OCc3ccccc3)cc2)oc1NCc1cccnc1 [2-(4-benzoxyphenyl)-5-(3-pyridylmethylamino)oxazole-4-carbonitrile] | 9.76 |
| c1ccc(CN2CCN(c3ncnc4c3[nH]c3ccccc34)CC2)cc1 [MLS000078384] | 3.95 |
| CC(C)Oc1cc(O)c2c(=O)c(-c3ccc(O)cc3)coc2c1 [3-(4-hydroxyphenyl)-5-oxidanyl-7-propan-2-yloxy-chromen-4-one] | 2.78 |

| Compound | EC50 [µM] |
| --- | --- |
| CCCCOC(=O)c1[nH]c2c(c1C)C(=O)CC(c1cc(OC)c(OC)c(OC)c1)C2 (configuration not stated) | 5.06 |
| Fc1ccc(COc2ccc(C=Nn3cnnc3)cc2)cc1 [1-[4-[(4-fluorophenyl)methoxy]phenyl]-N-(1,2,4-triazol-4-yl)methanimine] | 6.53 |
| O=C(Nc1cccc(C(F)(F)F)c1)C1CCCN1S(=O)(=O)c1cccc2cccnc12 (configuration not stated) [1-(8-quinolinylsulfonyl)-N-[3-(trifluoromethyl)phenyl]-2-pyrrolidinecarboxamide] | 5.41 |
| Cc1cc(C(=O)CSc2nnc(-c3cccnc3)n2-c2ccccc2F)c(C)n1C [SMR000064090] | 0.87 |
| CCCCn1nnnc1SCC(=O)c1ccc(C)c(C)c1 [2-(1-Butyl-1H-tetrazol-5-ylsulfanyl)-1-(3,4-dimethyl-phenyl)-ethanone] | 6.19 |
| O=C(Nc1nccs1)c1ccc(S(=O)(=O)NCC2CCCCC2)cc1 [4-(Cyclohexylmethyl-sulfamoyl)-N-thiazol-2-yl-benzamide] | 7.5 |
| COc1ccc(-c2nc(-c3ccc(Br)o3)no2)cc1OC [3-(5-bromanylfuran-2-yl)-5-(3,4-dimethoxyphenyl)-1,2,4-oxadiazole] | 5.87 |
| COc1ccc(C(=O)C2C(=O)C(=O)N(CC3CCCO3)C2c2cccc(OC)c2)cc1 (configuration not stated) [(4Z)-4-[hydroxy-(4-methoxyphenyl)methylene]-5-(3-methoxyphenyl)-1-(tetrahydrofurfuryl)pyrrolidine-2,3-quinone] | > 95 |
| COC(=O)c1ccc(OCC(O)Cn2nnc3ccccc32)cc1 (configuration not stated) [4-[3-(1-benzotriazolyl)-2-hydroxypropoxy]benzoic acid methyl ester] | > 95 |
| CCOC(=O)CN1C(=O)C(C)(C)Oc2ccc(C(=O)Nc3ccccc3OC)cc21 [2-[3-keto-6-[(2-methoxyphenyl)carbamoyl]-2,2-dimethyl-1,4-benzoxazin-4-yl]acetic acid ethyl ester] | 3.12 |
| CCOC(=O)N1CCN(C(=O)C2CCN(c3ncnc4c3sc3cccc(F)c34)CC2)CC1 [4-[1-(9-fluorobenzothiopheno[3,2-d]pyrimidin-4-yl)isonipecotoyl]piperazine-1-carboxylic acid ethyl ester] | 6.63 |
| CCOc1nc(C)ccc1-c1noc(-c2ccncc2)n1 [2-ethoxy-6-methyl-3-[5-(4-pyridinyl)-1,2,4-oxadiazol-3-yl]pyridine] | 6.59 |
| CCOC(=O)c1cnc(-n2nc(C)cc2C)nc1NC1CCCCC1 [4-(cyclohexylamino)-2-(3,5-dimethyl-1-pyrazolyl)-5-pyrimidinecarboxylic acid ethyl ester] | 5.91 |
| CCOC(=O)c1oc2cc(O)c(CC)cc2c(=O)c1-c1ccc2c(c1)OCCO2 [3-(2,3-dihydro-1,4-benzodioxin-6-yl)-6-ethyl-7-hydroxy-4-keto-chromene-2-carboxylic acid ethyl ester] | > 10 |
| Clc1ccc(CSc2nnc(-c3ccncc3)o2)cc1 [2-[(4-chlorobenzyl)thio]-5-(4-pyridyl)-1,3,4-oxadiazole] | 3.58 |
| COc1ccc(-c2n[nH]cc2-c2ccc3c(c2)OCCO3)c(O)c1 [(6E)-6-[4-(2,3-dihydro-1,4-benzodioxin-6-yl)-1,2-dihydropyrazol-3-ylidene]-3-methoxycyclohexa-2,4-dien-1-one] | 1.49 |
| CCCc1cc(C(=O)Nc2sc(C)c(CC)c2C#N)no1 [MLS000116385] | 3.08 |
| Cc1ccnc(SCC(=O)Nc2sc3c(c2C#N)CCCC3)n1 [MLS000077260] | 5.24 |
| COc1ccc(CN=O)cc1COc1ccc(NC(C)=O)cc1 [MLS000111933] | > 95 |
| COC(=O)C1=CN(CCCN2CCCC2=O)C=C(C(=O)OC)C1c1ccccc1C(F)(F)F | > 95 |
| CN(C)S(=O)(=O)c1ccc(C(=O)Nc2nc(-c3cccs3)cs2)cc1 [4-(dimethylsulfamoyl)-N-(4-thiophen-2-yl-1,3-thiazol-2-yl)benzamide] | > 10 |
| CCOC(=O)Nc1ccc2c(c1)N(C(=O)CCN(C)C)c1ccccc1S2 [MLS000038082] | 48.7 |

Same assay, conditions: inactive by the depositor's call

| Compound | EC50 [µM] |
| --- | --- |
| Cc1cc(C(=O)COC(=O)c2csc3c2CCCC3)c(C)n1C [4,5,6,7-tetrahydro-1-benzothiophene-3-carboxylic acid [2-oxo-2-(1,2,5-trimethyl-3-pyrrolyl)ethyl] ester] | 17.5 |
| Nn1c(Nc2ccccc2)nc2sc3c(c2c1=O)CCC3 [2-amino-3-anilino-7,8-dihydro-6H-cyclopenta[2,3]thieno[2,4-b]pyrimidin-1-one] | 21.7 |
| Cc1cccc(-c2nc(C#N)c(NC3CCCCC3)o2)c1 [5-(cyclohexylamino)-2-(3-methylphenyl)-1,3-oxazole-4-carbonitrile] | 11.8 |
| CC(=O)c1sc(NC(=O)C2(F)C(F)(F)C(F)(F)C(F)(F)C(F)(F)C2(F)F)nc1C [MLS000040071] | 31.1 |
| O=C(c1cc(-c2ccccc2)on1)N1CCN(Cc2ccc3c(c2)OCO3)CC1 [(5-phenylisoxazol-3-yl)-(4-piperonylpiperazino)methanone] | 58.7 |
| CC1=C(/C=C/C(C)=C/C=C/C(C)=C/C(=O)O)C(C)(C)CCC1 [ALL-TRANS-RETINOIC ACID] | 34.1 |
| Cc1ccc2nc(NC(=O)CSc3nc4c(c(=O)n3C)SC(C)C4)sc2c1 (configuration not stated) [2-[(3,6-dimethyl-4-oxidanylidene-6,7-dihydrothieno[3,2-d]pyrimidin-2-yl)sulfanyl]-N-(6-methyl-1,3-benzothiazol-2-yl)ethanamide] | 16.5 |
| Cc1ccccc1CS(=O)(=O)c1nnc([C@H](CC(C)C)NC(=O)OC(C)(C)C)o1 [SMR000044673] | 10.1 |
| O=C(CSc1ncnc2c1oc1ccccc12)N1CCCc2ccccc21 [2-(4-benzofuro[3,2-d]pyrimidinylthio)-1-(3,4-dihydro-2H-quinolin-1-yl)ethanone] | 10.8 |
| CC(=O)c1ccc(N2CCN(c3ccc(C(F)(F)F)cn3)CC2)cc1 [1-[4-[4-[5-(trifluoromethyl)-2-pyridinyl]-1-piperazinyl]phenyl]ethanone] | 37 |
| CCn1nc(-c2cccs2)nc2c(=O)n(C)c(=O)nc1-2 [1-ethyl-6-methyl-3-thiophen-2-yl-pyrimido[5,4-e][1,2,4]triazine-5,7-dione] | 31.8 |
| CCN(CC)C(=O)Oc1ccc2c(=O)c(-c3ccc(OC)cc3)coc2c1 [MLS000083046] | 10.9 |
| Cc1cc(C(=O)N2CCN(C(c3ccccc3)c3ccccc3)CC2)no1 [(4-benzhydrylpiperazin-1-yl)-(5-methyl-1,2-oxazol-3-yl)methanone] | 19.1 |
